This is an account of results in US7378513B2, “Isolated proteins from a traditional Chinese medicine Yuzhu and use thereof” (priority 2005, dated 2008).

≈ marks a conversion by molar mass, not a printed value. Where two headings read alike, the source gives them in different places.

Series [1] has as its system RSV (long strain). In words: microbe, parasite or virus in culture. The format is cell-based, respiratory syncytial virus. Particulars: CPE method; for IC50: human respiratory syncytial virus.
The test system of series [2] is RSV (long strain). In words: microbe, parasite or virus in culture. The format is cell-based. The following applies: human respiratory syncytial virus; plaque reduction assay. On the technique in general: In a plaque reduction assay, fewer plaques than in the control indicate reduced infectivity or spread.
In series [3] the test system is rabbit erythrocytes. In words: Hemagglutinating test, rabbit red blood cells. The format is cell-based. The method, then:
The assay was carried out in a U-shape microtiter plate as described previously (Ooi et al., 1998). […] Specific hemagglutinating activity was expressed as the number of hemagglutinating units per mg protein in Table 3. Rabbit, human (ABO groups), and chicken red blood cells were used for hemagglutinating test. Concanavalin A (ConA) was used as a positive control, and phosphate-buffered saline (PBS, 0.1M, pH7.4) as a negative control. A serial twofold dilution of the lectin solution (in PBS) in microtitre U-plates (50 μl) was mixed with 50 μl of a 2% suspension of red blood cells in PBS at room temperature. The results were read after about one hour when the blank (with red blood cells and buffer only) had fully sedimented.

Series [4] concerns HSV-1 (15577). Briefly: microbe, parasite or virus in culture. The format is cell-based, Herpes Simplex Virus. The following applies: Human alphaherpesvirus 1; plaque reduction assay, Vero cells; M2 value is the average of two.
The subject of series [5] is HSV-2. Briefly: Cytopathic effect (CPE) inhibition assay, HSV-2. The format is cell-based, Herpes Simplex Virus. The following applies: Human alphaherpesvirus 2; CPE method, Vero cells. (Damage to the host cells serves as the signal in cytopathic effect assays.)
Series [6] has as its system HSV-1 (15577). In words: microbe, parasite or virus in culture. The format is cell-based, Herpes Simplex Virus. The following applies: Human alphaherpesvirus 1, CPE method.

As a reminder, the IC50 is the midpoint of a concentration-inhibition curve.

As for `NC(=O)c1ncn([C@@H]2O[C@H](CO)[C@@H](O)[C@H]2O)n1` [Ribavirin], the “IC50 RSV (long strain)” value in series [1] (Hep2 cells, Table 4a Yuzhu (Dried Herbs), listed as Ribvirin) is on record as “(6.3) μg/ml”. The IC50 in series [1] (HEp-2, Hep2 cells, Table 4a Yuzhu (Dried Herbs), read-out: IC50 RSV (long strain)) came out at 6.3 µg/mL (≈ 25.8 µM); in series [1] (Table 4b Yuzhu (Fresh Herbs), read-out: IC50 RSV), 6.3 µg/mL (≈ 25.8 µM); in series [2] it was 3.3 µg/mL (≈ 13.5 µM).
Regarding Concanavalin A [ConA], the Specific hemagglutinating activity in series [3] is listed as 12,800 U/mg protein.
As for `Nc1nc2c(ncn2COCCO)c(=O)[nH]1` [Acyclovir], the IC50 in series [4] turned out to be 0.15 µg/mL (≈ 0.666 µM); in series [5] it was 0.35 µg/mL (≈ 1.55 µM); in series [6] (Vero cells, Table 4a Yuzhu (Dried Herbs)), 0.25 µg/mL (≈ 1.11 µM); in series [6] (Table 4b Yuzhu (Fresh Herbs)) it was 0.25 µg/mL (≈ 1.11 µM).
